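Method: 48-hour compound exposure of cells in 96-well plates, five concentrations, linear interpolation of endpoints. GI50: concentration for 50% inhibition of growth.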 Active and inactive are the calls of the source. Rule as the data show it: active = GI50 up to about 1.1 µM and inactive = higher.
Columns and labels:
Assay in all cases: NCI anticancer screen, dose series, 48 h
786-0 = system: 786-0
SK-OV-3 = system: SK-OV-3
NCI-H23 = system: NCI-H23
OVCAR-3 = system: OVCAR-3
OVCAR-8 = system: OVCAR-8
MDA-MB-435 = system: MDA-MB-435
UACC-62 = system: UACC-62
U-251 = system: U-251
ACHN = system: ACHN
A498 = system: A498
CCRF-CEM = system: CCRF-CEM
IGROV-1 = system: IGROV-1
SNB-75 = system: SNB-75
KM12 = system: KM12
CAKI-1 = system: CAKI-1
LOX IMVI = system: LOX IMVI
SK-MEL-5 = system: SK-MEL-5
MDA-MB-231 = system: MDA-MB-231
SK-MEL-2 = system: SK-MEL-2
T47D = system: T47D
UACC-257 = system: UACC-257
MDA-N = system: MDA-N
HCT-15 = system: HCT-15
UO-31 = system: UO-31
SR = system: SR
NCI-H522 = system: NCI-H522
M14 = system: M14
A549 = system: A549
COLO 205 = system: COLO 205
SF-295 = system: SF-295
SN12C = system: SN12C
RPMI-8226 = system: RPMI-8226
HOP-92 = system: HOP-92
SK-MEL-28 = system: SK-MEL-28
HT-29 = system: HT-29
RXF 393 = system: RXF 393
NCI-H226 = system: NCI-H226
HOP-62 = system: HOP-62
OVCAR-5 = system: OVCAR-5
SF-268 = system: SF-268
NCI/ADR-RES = system: NCI/ADR-RES
MCF7 = system: MCF7
MOLT-4 = system: MOLT-4
Hs-578T = system: Hs-578T
Malme-3M = system: Malme-3M
PC-3 = system: PC-3
OVCAR-4 = system: OVCAR-4
HCT-116 = system: HCT-116
DU-145 = system: DU-145
HL-60 = system: HL-60
SNB-19 = system: SNB-19
TK-10 = system: TK-10
BT-549 = system: BT-549
SW-620 = system: SW-620
K562 = system: K562
EKVX = system: EKVX
NCI-H460 = system: NCI-H460
SF-539 = system: SF-539

CC(=O)c1ccc2c3c1[C@H]1O[C@H]1c1cccc(c1-3)[C@@H]1O[C@H]21
GI50 (786-0): 2 µM (inactive) | GI50 (SK-OV-3): 5.32 µM (inactive) | GI50 (NCI-H23): 1.49 µM (inactive) | GI50 (OVCAR-3): 3.27 µM (inactive) | GI50 (OVCAR-8): 1.56 µM (inactive) | GI50 (MDA-MB-435): 1.79 µM (inactive) | GI50 (UACC-62): 2.01 µM (inactive) | GI50 (U-251): 1.93 µM (inactive) | GI50 (ACHN): 1.94 µM (inactive) | GI50 (A498): 2.37 µM (inactive) | GI50 (CCRF-CEM): 1.61 µM (inactive) | GI50 (IGROV-1): 0.112 µM (active) | GI50 (SNB-75): 1.93 µM (inactive) | GI50 (KM12): 1.87 µM (inactive) | GI50 (CAKI-1): 1.29 µM (inactive) | GI50 (LOX IMVI): 0.31 µM (active) | GI50 (SK-MEL-5): 2.17 µM (inactive) | GI50 (MDA-MB-231): 2.14 µM (inactive) | GI50 (SK-MEL-2): 2.74 µM (inactive) | GI50 (T47D): 2.15 µM (inactive) | GI50 (UACC-257): 2.04 µM (inactive) | GI50 (MDA-N): 2.32 µM (inactive) | GI50 (HCT-15): 0.959 µM | GI50 (UO-31): 1.69 µM (inactive) | GI50 (SR): 4.57 µM (inactive) | GI50 (NCI-H522): 0.286 µM (active) | GI50 (M14): 1.61 µM (inactive) | GI50 (A549): 2.92 µM (inactive) | GI50 (COLO 205): 1.71 µM (inactive) | GI50 (SF-295): 4.52 µM (inactive) | GI50 (SN12C): 1.85 µM (inactive) | GI50 (RPMI-8226): 2.09 µM (inactive) | GI50 (HOP-92): 1.57 µM (inactive) | GI50 (SK-MEL-28): 1.79 µM (inactive) | GI50 (HT-29): 2.3 µM (inactive) | GI50 (RXF 393): 1.93 µM (inactive) | GI50 (NCI-H226): 29.4 µM (inactive) | GI50 (HOP-62): 2.39 µM (inactive) | GI50 (OVCAR-5): 1.95 µM (inactive) | GI50 (SF-268): 1.51 µM (inactive) | GI50 (NCI/ADR-RES): 1.98 µM (inactive) | GI50 (MCF7): 2.34 µM (inactive) | GI50 (MOLT-4): 3.06 µM (inactive) | GI50 (Hs-578T): 1.53 µM (inactive) | GI50 (Malme-3M): 1.37 µM (inactive) | GI50 (PC-3): 2.47 µM (inactive) | GI50 (OVCAR-4): 1.67 µM (inactive) | GI50 (HCT-116): 1.74 µM (inactive) | GI50 (DU-145): 2.37 µM (inactive) | GI50 (HL-60): 2.58 µM (inactive) | GI50 (SNB-19): 2.98 µM (inactive) | GI50 (TK-10): 4.21 µM (inactive) | GI50 (BT-549): 1.87 µM (inactive) | GI50 (SW-620): 0.855 µM (active) | GI50 (K562): 0.444 µM (active) | GI50 (EKVX): 1.9 µM (inactive)

COc1nc2ncc([C@@H](OC(C)=O)[C@@H](COC(C)=O)OC(C)=O)nc2c(=O)n1C
GI50 (786-0): > 100 µM (inactive) | GI50 (SK-OV-3): > 100 µM (inactive) | GI50 (OVCAR-3): > 100 µM (inactive) | GI50 (NCI-H460): > 100 µM (inactive) | GI50 (OVCAR-8): > 100 µM (inactive) | GI50 (MDA-MB-435): > 100 µM (inactive) | GI50 (UACC-62): > 100 µM (inactive) | GI50 (U-251): > 100 µM (inactive) | GI50 (ACHN): > 100 µM (inactive) | GI50 (A498): > 100 µM (inactive) | GI50 (CCRF-CEM): 58.1 µM (inactive) | GI50 (IGROV-1): > 100 µM (inactive) | GI50 (SNB-75): > 100 µM (inactive) | GI50 (KM12): > 100 µM (inactive) | GI50 (CAKI-1): > 100 µM (inactive) | GI50 (LOX IMVI): > 100 µM (inactive) | GI50 (SK-MEL-5): > 100 µM (inactive) | GI50 (MDA-MB-231): > 100 µM (inactive) | GI50 (SK-MEL-2): > 100 µM (inactive) | GI50 (T47D): > 100 µM (inactive) | GI50 (UACC-257): > 100 µM (inactive) | GI50 (MDA-N): > 100 µM (inactive) | GI50 (HCT-15): > 100 µM | GI50 (UO-31): > 100 µM (inactive) | GI50 (SR): > 100 µM (inactive) | GI50 (NCI-H522): 57.5 µM (inactive) | GI50 (M14): > 100 µM (inactive) | GI50 (A549): > 100 µM (inactive) | GI50 (COLO 205): > 100 µM (inactive) | GI50 (SF-295): > 100 µM (inactive) | GI50 (SN12C): > 100 µM (inactive) | GI50 (RPMI-8226): 96.8 µM (inactive) | GI50 (HOP-92): > 100 µM (inactive) | GI50 (SK-MEL-28): > 100 µM (inactive) | GI50 (HT-29): > 100 µM (inactive) | GI50 (RXF 393): > 100 µM (inactive) | GI50 (NCI-H226): > 100 µM (inactive) | GI50 (HOP-62): > 100 µM (inactive) | GI50 (OVCAR-5): > 100 µM (inactive) | GI50 (SF-268): > 100 µM (inactive) | GI50 (NCI/ADR-RES): > 100 µM (inactive) | GI50 (MCF7): > 100 µM (inactive) | GI50 (MOLT-4): > 100 µM (inactive) | GI50 (Hs-578T): > 100 µM (inactive) | GI50 (Malme-3M): > 100 µM (inactive) | GI50 (PC-3): > 100 µM (inactive) | GI50 (SF-539): > 100 µM (inactive) | GI50 (OVCAR-4): 48 µM (inactive) | GI50 (HCT-116): > 100 µM (inactive) | GI50 (DU-145): > 100 µM (inactive) | GI50 (HL-60): 24.3 µM (inactive) | GI50 (SNB-19): > 100 µM (inactive) | GI50 (TK-10): > 100 µM (inactive) | GI50 (BT-549): > 100 µM (inactive) | GI50 (SW-620): > 100 µM (inactive) | GI50 (K562): > 100 µM (inactive) | GI50 (EKVX): > 100 µM (inactive)
